Experimental data published in ChEMBL document CHEMBL5370571, “α-Synuclein Aggregation Inhibitory and Antiplasmodial Activity of Constituents from the Australian Tree Eucalyptus cloeziana” (J Nat Prod, 2023).
Active and inactive are the calls of the source. The calls are words filed in the database; no cut-off is given here.

Tests used:
Plasmodium falciparum [1] = assay: Antiplasmodial activity against Plasmodium falciparum 3D7 assessed as inhibition of parasite growth; type: functional, organism-based
[2] = biological target: Alpha-synuclein (Homo sapiens) (UniProt P37840); assay: Binding affinity to human alpha-synuclein expressed in Escherichia coli BL21 (DE3) at 100 uM incubated for 3 hrs by ETD Q-TOF ((+) HRESIMS) analysis
[3] = Selectivity index, ratio of IC50 for cytotoxicity against HEK293 cells to IC50 for antiplasmodial activity against ring stage drug-sensitive Plasmodium falciparum 3D7; type: toxicity, cell-based; settings: human, HEK293 cells versus ring stage Plasmodium falciparum 3D7; read-out: Ratio IC50
Pseudomonas aeruginosa = assay: Antibacterial activity against Pseudomonas aeruginosa ATCC 27853 at 64 ug/mL incubated for 18 hrs by resazurin dye based fluorescence assay; type: functional, organism-based; settings: dose 64.0 µg/ml
Plasmodium falciparum [4] = assay: Antiplasmodial activity against ring stage drug-sensitive Plasmodium falciparum 3D7 assessed as inhibition of parasite growth incubated for 72 hrs by DAPI staining based assay; type: functional, organism-based; settings: 3D7, 72 h
HEK293 = assay: Cytotoxicity against HEK293 cells assessed as reduction in cell viability at 80 uM measured after 72 hrs by resazurin dye based fluorescence assay relative to control; type: toxicity; settings: human, hek293, 72 h
Staphylococcus aureus [5] = assay: Antibacterial activity against methicillin-resistant Staphylococcus aureus ATCC 43300 at 64 ug/mL incubated for 16 to 18 hrs by resazurin dye based fluorescence assay; type: functional, organism-based; settings: dose 64.0 µg/ml, time 16-18 hrs
Staphylococcus aureus [6] = assay: Antibacterial activity against methicillin-susceptible Staphylococcus aureus ATCC 25923 at 64 ug/mL incubated for 16 to 18 hrs by resazurin dye based fluorescence assay; type: functional, organism-based; settings: dose 64.0 µg/ml, time 16-18 hrs
[7] = Cytotoxicity against HEK293 cells assessed as reduction in cell viability measured after 72 hrs by resazurin dye based fluorescence assay; type: toxicity; settings: human
Plasmodium falciparum [8] = assay: Antiplasmodial activity against ring stage drug-sensitive Plasmodium falciparum 3D7 assessed as inhibition of parasite growth at 40 uM incubated for 72 hrs by DAPI staining based assay; type: functional, organism-based
[9] = biological target: Alpha-synuclein (Homo sapiens) (UniProt P37840); assay: Inhibition of human alpha-synuclein aggregation expressed in Escherichia coli BL21 (DE3) at 10:1 compound to protein molar ratio measured after 36 hrs by thioflavin T fluorescence assay relative to control; settings: concentration not given here
[10] = biological target: Alpha-synuclein (Homo sapiens) (UniProt P37840); assay: Inhibition of human alpha-synuclein aggregation expressed in Escherichia coli BL21 (DE3) at 400 uM measured after 36 hrs by thioflavin T fluorescence assay

Row | SMILES | Activity [2] | selectivity ratio [3] | IC50 (Plasmodium falciparum [4]) | Activity (HEK293) | further results
1 | CC(C)CC(=O)c1c(O)c2c(c3c1O[C@@]1(C(C)C)OC4=C(C(=O)C(C)(C)C(=O)C4(C)C)[C@@H]31)OC1=C(C(=O)C(C)(C)C(=O)C1(C)C)[C@H]2CC(C)C |  |  |  |  | IC50 (Plasmodium falciparum [1]): 1000 nM
2 | CC(=O)O[C@@H]1C(C)(C)C(=O)C(C)(C)C(=O)[C@]1(O)CC(C)C | inactive |  |  |  | 
3 | O=C1C=C(c2ccc(O)cc2)[C@@]2(O1)O[C@@]1(OC(=O)C=C1c1ccc(O)cc1)C(c1ccc(O)cc1)=C2c1ccc(O)cc1 |  |  |  |  | IC50 (Plasmodium falciparum [1]): 5100 nM
4 | CC(C)CC(=O)c1c(O)c2c(c3c1O[C@@]1(C(C)C)OC4=C(C(=O)C(C)(C)C(=O)C4(C)C)[C@@H]31)OC1=C(C(=O)C(C)(C)C(=O)C1(C)C)[C@@H]2CC(C)C |  |  |  |  | IC50 (Plasmodium falciparum [1]): > 40000 nM
5 | CC(C)=C[C@@]1(O)C(=O)C(C)(C)C(=O)C(C)(C)[C@H]1OC(=O)C(C)C | inactive | > 5 | 16000 nM | Non-Toxic | Activity (Pseudomonas aeruginosa): inactive; Activity (Staphylococcus aureus [5]): inactive; Activity (Staphylococcus aureus [6]): inactive
6 | CCc1nc(N)nc(N)c1-c1ccc(Cl)cc1 [PYRIMETHAMINE] |  | 588 | 17 nM | 31% | 
7 | CC(C)C[C@@]1(O)C(=O)C(C)(C)C(=O)C(C)(C)[C@H]1OC(=O)C(C)C | inactive | > 12.1 | 6600 nM | Non-Toxic | Activity (Pseudomonas aeruginosa): inactive; Activity (Staphylococcus aureus [5]): inactive; Activity (Staphylococcus aureus [6]): inactive
8 | C[C@H]1[C@H](OC(=O)CCC(=O)O)O[C@@H]2O[C@@]3(C)CC[C@H]4[C@H](C)CC[C@@H]1[C@@]24OO3 [ARTESUNATE] |  | 1750 | 1.4 nM | 20% | 
9 | COc1ccc(C[C@H](N)C(=O)N[C@H]2[C@@H](O)[C@H](n3cnc4c(N(C)C)ncnc43)O[C@@H]2CO)cc1 [PUROMYCIN] |  | 9.2 | 91 nM |  | IC50 at 72 h [7]: 837 nM
10 | CC(C)(O)[C@@H]1CC[C@@]2(C)CCC[C@@](C)(O)[C@@H]2C1 | inactive |  |  |  | 
11 | CC1(C)CC2=C(OO1)C(C)(C)C(=O)C(C)(C)C2=O | inactive |  |  | Non-Toxic | 
12 | CC(C)CC[C@]1(O)[C@H](O)C(C)(C)[C@@H](O)C(C)(C)[C@@H]1O |  |  |  |  | Activity (Plasmodium falciparum [8]): inactive
13 | CC(C)C[C@]1(O)C(O)=C([C@@H](C2=C(O)C(C)(C)C(=O)C(C)(C)C2=O)C(C)C)C(=O)C([C@H](C2=C(O)C(C)(C)C(=O)C(C)(C)C2=O)C(C)C)=C1O | Active | > 8.4 | 9500 nM | Non-Toxic | inhibition [9]: 39.5%; Activity (Pseudomonas aeruginosa): inactive; Activity (Staphylococcus aureus [5]): inactive; inhibition [10]: inactive; Activity (Staphylococcus aureus [6]): inactive
14 | CC1(C)C=C2C(=O)C(C)(C)C(=O)C(C)(C)[C@@]2(O)OO1 | inactive |  |  |  | 
15 | CC(C)=CC(=O)[C@]1(O)[C@@H](O)C(C)(C)C(=O)C1(C)C | inactive |  |  |  | 
